Measured values from ChEMBL document CHEMBL2177100, “Structural optimization and structure-activity relationships of N2-(4-(4-Methylpiperazin-1-yl)phenyl)-N8-phenyl-9H-purine-2,8-diamine derivatives, a new class of reversible kinase inhibitors targeting both EGFR-activating and resistance mutations” (J Med Chem, 2012).
Calls of active or inactive are those of the source. The rule behind the calls is not given here.

Key:
HepG2 = assay: Cytotoxicity against human HepG2 cells incubated for 72 hrs by MTT assay; assay type: functional, cell-based; settings: HepG2, 72 h
NCI-H1975 [1] = assay: Cytotoxicity against human NCI-H1975 cells incubated for 72 hrs by MTT assay; assay type: functional, cell-based; settings: NCI-H1975, 72 h
[2] = Cytotoxicity against human HCC827 cells incubated for 72 hrs by MTT assay; assay type: functional, cell-based; settings: HCC827, 72 h
[3] = target: Epidermal growth factor receptor (Homo sapiens, UniProt P00533, L858R/T790M); assay: Inhibition of EGFR L858R/T790M mutant; assay type: protein assay
[4] = target: Epidermal growth factor receptor (Homo sapiens, UniProt P00533, L858R); assay: Inhibition of EGFR L858R mutant; assay type: protein assay
HCC827 = assay: Antitumor activity against human HCC827 cells xenografted in BALB/c mouse assessed as reduction tumor volume at 100 mg/kg, po qd; assay type: functional, organism-based; set-up: dose 100 mg/kg
PC-9 = assay: Cytotoxicity against human PC9 cells incubated for 72 hrs by MTT assay; assay type: functional, cell-based; settings: PC-9, 72 h
Mus musculus = assay: Toxicity in human NCI-H1975 cells xenografted BALB/c mouse assessed as body weight loss at 20 mg/kg, po qd; assay type: organism-based; set-up: dose 20 mg/kg, route oral; settings: in vivo
NCI-H1975 [5] = assay: Antitumor activity against human NCI-H1975 cells xenografted in BALB/c mouse assessed as inhibition of tumor growth at 20 mg/kg, po qd; assay type: functional; settings: read-out: TGI

Sequence of Epidermal growth factor receptor (Homo sapiens, UniProt P00533, L858R/T790M) (P00533 25-1210 T790M/L858R limits assumed): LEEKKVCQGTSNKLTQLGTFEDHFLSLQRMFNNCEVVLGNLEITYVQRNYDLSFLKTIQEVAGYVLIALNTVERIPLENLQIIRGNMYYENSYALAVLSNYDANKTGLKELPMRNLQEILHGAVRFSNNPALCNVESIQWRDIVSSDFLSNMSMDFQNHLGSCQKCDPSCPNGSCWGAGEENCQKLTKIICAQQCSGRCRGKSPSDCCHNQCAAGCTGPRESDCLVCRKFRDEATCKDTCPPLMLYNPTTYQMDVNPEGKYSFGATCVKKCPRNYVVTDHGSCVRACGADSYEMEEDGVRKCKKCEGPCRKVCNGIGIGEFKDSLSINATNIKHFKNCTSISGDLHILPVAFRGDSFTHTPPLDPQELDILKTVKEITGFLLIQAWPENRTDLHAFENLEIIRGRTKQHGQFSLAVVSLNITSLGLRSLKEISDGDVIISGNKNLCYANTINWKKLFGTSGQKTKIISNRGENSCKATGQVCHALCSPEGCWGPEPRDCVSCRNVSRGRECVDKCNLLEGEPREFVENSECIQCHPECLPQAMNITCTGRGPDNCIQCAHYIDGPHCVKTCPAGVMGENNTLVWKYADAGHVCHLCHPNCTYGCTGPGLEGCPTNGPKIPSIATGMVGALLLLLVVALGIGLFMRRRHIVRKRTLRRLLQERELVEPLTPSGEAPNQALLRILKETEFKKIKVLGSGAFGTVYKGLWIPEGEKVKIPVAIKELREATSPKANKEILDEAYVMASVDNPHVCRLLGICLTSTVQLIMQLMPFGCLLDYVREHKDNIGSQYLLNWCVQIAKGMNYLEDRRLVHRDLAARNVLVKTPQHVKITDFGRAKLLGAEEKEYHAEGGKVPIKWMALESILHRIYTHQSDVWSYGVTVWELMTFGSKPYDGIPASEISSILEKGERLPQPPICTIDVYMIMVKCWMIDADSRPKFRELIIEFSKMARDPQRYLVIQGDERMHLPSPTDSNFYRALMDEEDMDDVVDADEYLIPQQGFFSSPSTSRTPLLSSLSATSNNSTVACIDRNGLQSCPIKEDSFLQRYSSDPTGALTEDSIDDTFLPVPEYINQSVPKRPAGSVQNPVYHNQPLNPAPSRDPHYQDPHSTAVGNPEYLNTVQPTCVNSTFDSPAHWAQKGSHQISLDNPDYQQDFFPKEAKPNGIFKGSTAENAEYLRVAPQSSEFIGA
Sequence of Epidermal growth factor receptor (Homo sapiens, UniProt P00533, L858R) (P00533 25-1210 L858R limits assumed): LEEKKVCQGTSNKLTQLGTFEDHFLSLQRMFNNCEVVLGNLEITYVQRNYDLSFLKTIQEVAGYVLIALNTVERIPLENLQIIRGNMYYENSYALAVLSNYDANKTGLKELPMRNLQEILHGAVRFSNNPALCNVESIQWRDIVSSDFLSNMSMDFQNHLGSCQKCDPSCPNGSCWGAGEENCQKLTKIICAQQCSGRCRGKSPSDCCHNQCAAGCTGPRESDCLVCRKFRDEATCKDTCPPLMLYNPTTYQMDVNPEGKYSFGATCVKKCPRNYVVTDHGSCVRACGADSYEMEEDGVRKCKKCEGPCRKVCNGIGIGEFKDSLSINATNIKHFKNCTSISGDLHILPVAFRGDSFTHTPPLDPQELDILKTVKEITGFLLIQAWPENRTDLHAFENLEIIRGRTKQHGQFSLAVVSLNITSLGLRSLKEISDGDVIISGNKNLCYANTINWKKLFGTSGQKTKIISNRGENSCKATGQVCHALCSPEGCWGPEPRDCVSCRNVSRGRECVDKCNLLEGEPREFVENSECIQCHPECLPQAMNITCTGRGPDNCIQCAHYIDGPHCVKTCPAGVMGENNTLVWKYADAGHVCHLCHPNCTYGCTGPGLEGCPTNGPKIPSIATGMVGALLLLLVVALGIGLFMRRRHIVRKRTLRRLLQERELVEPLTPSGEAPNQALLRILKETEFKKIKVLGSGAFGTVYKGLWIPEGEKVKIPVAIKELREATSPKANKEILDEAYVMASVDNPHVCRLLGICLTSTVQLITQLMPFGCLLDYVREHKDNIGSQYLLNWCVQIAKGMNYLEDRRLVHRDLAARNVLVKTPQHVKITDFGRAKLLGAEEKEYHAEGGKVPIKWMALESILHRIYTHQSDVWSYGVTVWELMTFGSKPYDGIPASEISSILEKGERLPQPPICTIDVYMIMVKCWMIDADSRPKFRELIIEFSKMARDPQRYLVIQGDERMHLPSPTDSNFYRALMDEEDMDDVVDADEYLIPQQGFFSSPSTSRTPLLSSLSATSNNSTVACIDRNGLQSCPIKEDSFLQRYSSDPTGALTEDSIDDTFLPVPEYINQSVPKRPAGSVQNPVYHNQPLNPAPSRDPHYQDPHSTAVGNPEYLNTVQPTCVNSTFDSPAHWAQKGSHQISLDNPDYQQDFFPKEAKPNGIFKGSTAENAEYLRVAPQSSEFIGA

Work on `Cc1cccc(Nc2nc3cnc(Nc4ccc(N5CCN(C)CC5)cc4)nc3n2C2CCCC2)c1` yielded an IC50 (HepG2) of 4.7 µM, an IC50 (NCI-H1975 [1]) of 0.56 µM and an IC50 [2] of under 0.01 nM.

Molecule `CC(C)n1c(Nc2ccccc2)nc2cnc(Nc3ccc(N4CCN(C)CC4)cc3)nc21` has an IC50 (HepG2) of over 5 µM, an IC50 (NCI-H1975 [1]) of 0.96 µM and an IC50 [2] of 0.1 nM.

Work on `CN1CCN(c2ccc(Nc3ncc4nc(Nc5ccccc5)n(C5CCCCC5)c4n3)cc2)CC1` yielded an IC50 (HepG2) of over 5 µM, an IC50 (NCI-H1975 [1]) of 0.39 µM and an IC50 [2] of under 0.01 nM.

In the case of `CN1CCN(c2ccc(Nc3ncc4nc(Nc5ccccc5)n(-c5ccccc5)c4n3)cc2)CC1`, the IC50 (HepG2) is reported as over 5 µM, the IC50 (NCI-H1975 [1]) is reported as 1.83 µM and the IC50 [2] is reported as 1.7 nM.

Molecule `CN1CCN(c2ccc(Nc3ncc4nc(Nc5ccccc5)[nH]c4n3)cc2)CC1` has an IC50 [3] of 0.978 µM, an IC50 (HepG2) of over 5 µM and an IC50 [4] of 0.098 µM. It also gave an IC50 (NCI-H1975 [1]) of 18.1 µM and an IC50 [2] of 233 nM.

Molecule `CN1CCN(c2ccc(Nc3ncc4nc(Nc5ccc(Br)cc5)n(C5CCCC5)c4n3)cc2)CC1` has an IC50 (HepG2) of over 5 µM, an IC50 (NCI-H1975 [1]) of 2.09 µM and an IC50 [2] of 2.2 nM.

`CN1CCN(c2ccc(Nc3ncc4nc(Nc5cccc(C(=O)Nc6ccc(Cl)cc6)c5)n(C5CCCC5)c4n3)cc2)CC1` showed an IC50 (HepG2) of over 5 µM, an IC50 (NCI-H1975 [1]) of 4.01 µM and an IC50 [2] of 2900 nM.

In the case of `COc1cc2ncnc(Nc3ccc(F)c(Cl)c3)c2cc1OCCCN1CCOCC1` [GEFITINIB], the TGI (HCC827) is reported as “Active” and the IC50 (PC-9) is reported as 0.014 µM.

With `CN1CCN(c2ccc(Nc3ncc4nc(Nc5cccc(NC(=O)c6ccccc6)c5)n(C5CCCC5)c4n3)cc2)CC1` the IC50 (HepG2) was 2.6 µM, the IC50 (NCI-H1975 [1]) was 2.12 µM and the IC50 [2] was 15 nM.

With `c1ccc(Nc2nc3cnc(Nc4ccc(N5CCOCC5)cc4)nc3n2C2CCCC2)cc1` the IC50 (HepG2) was over 5 µM, the IC50 (NCI-H1975 [1]) was 9.2 µM and the IC50 [2] was 0.66 nM.

`CN1CCN(c2ccc(Nc3ncc4nc(Nc5ccccc5)n(C5CC5)c4n3)cc2)CC1` gave an IC50 (HepG2) of over 5 µM, an IC50 (NCI-H1975 [1]) of 2.86 µM and an IC50 [2] of 18 nM.

`CN1CCN(c2ccc(Nc3ncc4nc(Nc5cccc(Cl)c5)n(C5CCCC5)c4n3)cc2)CC1` gave an IC50 (HepG2) of 4.8 µM, an IC50 (NCI-H1975 [1]) of 0.39 µM and an IC50 [2] of under 0.01 nM.

Molecule `OCCNc1ccc(Nc2ncc3nc(Nc4ccccc4)n(C4CCCC4)c3n2)cc1` has an IC50 (HepG2) of over 5 µM, an IC50 (NCI-H1975 [1]) of 2.81 µM and an IC50 [2] of 2.8 nM.

Work on `CN(C)C/C=C/C(=O)Nc1cc2c(Nc3ccc(F)c(Cl)c3)ncnc2cc1O[C@H]1CCOC1` [AFATINIB] yielded an Activity (Mus musculus) of 6.6% and an inhibition in vivo at 20 mg/kg (NCI-H1975 [5]) of 74%.

`C#Cc1cccc(Nc2nc3cnc(Nc4ccc(N5CCN(C)CC5)cc4)nc3n2C2CCCC2)c1` gave an IC50 (HepG2) of 4.9 µM, an IC50 (NCI-H1975 [1]) of 0.65 µM and an IC50 [2] of under 0.01 nM.

Molecule `CN1CCN(c2ccc(Nc3ncc4nc(Nc5cccc(O)c5)n(C5CCCC5)c4n3)cc2)CC1` has an IC50 (HepG2) of 4.2 µM, an IC50 (NCI-H1975 [1]) of 1.02 µM and an IC50 [2] of 0.72 nM.

Molecule `CC(=O)Nc1ccc(Nc2ncc3nc(Nc4ccccc4)n(C4CCCC4)c3n2)cc1` has an IC50 (HepG2) of over 5 µM, an IC50 (NCI-H1975 [1]) of 1.21 µM and an IC50 [2] of 0.47 nM.

For `CN1CCN(c2ccc(Nc3ncc4nc(Nc5cccc([N+](=O)[O-])c5)n(C5CCCC5)c4n3)cc2)CC1`, the IC50 (HepG2) was over 5 µM, the IC50 (NCI-H1975 [1]) was 0.98 µM and the IC50 [2] was under 0.01 nM.

`Cc1cc(C)cc(-n2c(Nc3ccccc3)nc3cnc(Nc4ccc(N5CCN(C)CC5)cc4)nc32)c1` gave an IC50 (HepG2) of over 5 µM, an IC50 (NCI-H1975 [1]) of 1.91 µM and an IC50 [2] of 1 nM.

For `CN1CCN(c2ccc(Nc3ncc4nc(Nc5cc(Cl)ccc5Cl)n(C5CCCC5)c4n3)cc2)CC1`, the IC50 (HepG2) was over 5 µM, the IC50 (NCI-H1975 [1]) was 2.54 µM and the IC50 [2] was 0.01 nM.

For `CN1CCN(c2ccc(Nc3ncc4nc(Nc5ccccc5)n(C)c4n3)cc2)CC1`, the IC50 (HepG2) was over 5 µM, the IC50 (NCI-H1975 [1]) was 6.06 µM and the IC50 [2] was 24 nM.

With `c1ccc(Nc2ncc3nc(Nc4ccccc4)n(C4CCCC4)c3n2)cc1` the IC50 (HepG2) was over 5 µM, the IC50 (NCI-H1975 [1]) was over 10 µM and the IC50 [2] was 2.7 nM.

In the case of `CC1CCN(c2ccc(Nc3ncc4nc(Nc5ccccc5)n(C5CCCC5)c4n3)cc2)CC1`, the IC50 (HepG2) is reported as over 5 µM, the IC50 (NCI-H1975 [1]) is reported as 9.8 µM and the IC50 [2] is reported as 32 nM.

Work on `CN1CCN(c2ccc(Nc3ncc4nc(Nc5ccc(Br)cc5F)n(C5CCCC5)c4n3)cc2)CC1` yielded an IC50 (HepG2) of over 5 µM, an IC50 (NCI-H1975 [1]) of 1.12 µM and an IC50 [2] of 2.3 nM.
